According to paper PMC5104480 (PLoS ONE, 2016):
One block for each compound: values may come before it.

What was measured:
[1] = cited from earlier work
HeLa cells = assay: Glucuronide formation in HeLa cells (control); conditions: HeLa cells without UGT1A9 (control)
Protocol: HeLa and HeLa—UGT1A9 cells were seeded into six-well plate at a density of 1.0 × 10^5 cells/well, and were grown using Dulbecco’s modified Eagle’smedium (DMEM) supplemented with 10% fetal bovine serum (FBS). After 3 ~ 4 days of seeding, the cells can be used for the glucuronidation experiments.
Brifely speaking, the cells were incubated at 37°C with loading solution (2 mL). […] The collected samples were mixed with 250 μL acetonitrile containing 25 nM tilianin and then analyzed by UHPLC—MS/MS after centrifugation at 13,000 rpm for 30 min. After the excretion experiment, the cells were washed and selected in 300 μL HBSS buffer, and then the cells were ultrasonicated. After centrifugation at 13,000 rpm for 30 min, the 200 μL supernatant was obtained and mixed with 100 μL acetonitrile containing 25 nM tilianin. The mixture was then centrifuged at 13,000 rpm for 30 min and prepared for subsequent UHPLC—MS/MS analysis.

HepG2 cells = assay: MTT assay, HepG2 cells, with and without Ko143; format: cell-based
Protocol: The cells were further incubated at 37°C with 5% CO2 for 48 h. […] The supernatants were discarded, and 150 μL of dimethyl sulfoxide was added to each well. The plates were shaken for 10 min at room temperature, and then, the stained formazan product was determined at 570 nm with a multimode plate reader.

A549 cells = assay: MTT assay, A549 cells, with and without Ko143; format: cell-based
Protocol: The cells were further incubated at 37°C with 5% CO2 for 48 h. The culture medium was removed and replaced with 100 μL 0.5 mg/mL 3-(4, 5-dimethylthiozol-2-yl)-3, 5-dipheryl tetrazolium bromide (MTT) solution and incubated at 37°C for 4 h. The supernatants were discarded, and 150 μL of dimethyl sulfoxide was added to each well. The plates were shaken for 10 min at room temperature, and then, the stained formazan product was determined at 570 nm with a multimode plate reader.

[2] = target: T1, HLMs, UGT1A1, UGT1A6 and UGT1A9 (Homo sapiens, UniProt O60656); conditions: HLMs and UGT1A9, compared with control
T1 sequence (O60656 26-530): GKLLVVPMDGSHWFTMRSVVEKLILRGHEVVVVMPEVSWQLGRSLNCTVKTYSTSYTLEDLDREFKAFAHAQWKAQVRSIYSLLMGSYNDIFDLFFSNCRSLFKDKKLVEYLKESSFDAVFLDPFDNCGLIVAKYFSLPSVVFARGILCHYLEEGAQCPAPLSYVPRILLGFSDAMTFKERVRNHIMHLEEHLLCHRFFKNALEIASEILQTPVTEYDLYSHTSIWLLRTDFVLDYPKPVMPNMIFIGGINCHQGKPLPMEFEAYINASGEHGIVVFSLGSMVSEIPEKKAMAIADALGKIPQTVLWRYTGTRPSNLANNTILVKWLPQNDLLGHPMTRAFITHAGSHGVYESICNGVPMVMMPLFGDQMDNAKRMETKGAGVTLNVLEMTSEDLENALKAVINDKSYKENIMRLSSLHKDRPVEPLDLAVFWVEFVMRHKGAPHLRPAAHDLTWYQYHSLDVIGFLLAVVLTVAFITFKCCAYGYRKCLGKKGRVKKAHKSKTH
Protocol: (§1) The protein concentrations of the HLMs and expressed UGTs were 0.0021–0.0106 mg protein/mL. All of the incubations were run at 37°C for 30 min, and the way of pretreated and determined samples were as discribed above.

[3] = target: T2, HLMs, UGT1A1, UGT1A6 and UGT1A9 (Homo sapiens, UniProt P22309); conditions: HLMs and UGT1A1; substrate chrysoeriol; compared with control
T2 sequence (P22309 26-533): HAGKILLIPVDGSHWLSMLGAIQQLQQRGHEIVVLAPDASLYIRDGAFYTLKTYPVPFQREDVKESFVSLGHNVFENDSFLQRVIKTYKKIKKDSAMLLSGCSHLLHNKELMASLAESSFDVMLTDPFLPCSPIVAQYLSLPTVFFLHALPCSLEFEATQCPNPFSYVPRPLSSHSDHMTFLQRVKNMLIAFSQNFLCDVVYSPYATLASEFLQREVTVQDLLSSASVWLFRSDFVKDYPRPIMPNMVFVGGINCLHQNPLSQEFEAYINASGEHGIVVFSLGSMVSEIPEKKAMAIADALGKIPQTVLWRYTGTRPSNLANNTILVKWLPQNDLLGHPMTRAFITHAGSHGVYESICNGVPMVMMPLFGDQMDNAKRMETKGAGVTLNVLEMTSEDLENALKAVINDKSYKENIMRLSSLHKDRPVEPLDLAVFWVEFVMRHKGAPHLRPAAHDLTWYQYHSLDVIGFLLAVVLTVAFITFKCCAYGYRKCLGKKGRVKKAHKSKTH
Protocol: as §1

[4] = 10 μM substrate with 5 or 10 μM Ko143, 48 h
[5] = 10 μM substrate with 5 μM Ko143, 48 h
[6] = 10 μM substrate with 10 μM Ko143, 48 h

Compound: genistein glucuronides
Km [1]: 15.1 µM

glucuronided metabolites in HeLa cells (HeLa cells): did not find
Compound: COc1cc(-c2cc(=O)c3c(O)cc(O)cc3o2)ccc1O [chrysoeriol, 5,7,4′-trihydroxy-3′-methoxyflavone]
change of cytotoxicity when treated with Ko143 (HepG2 cells; [4]): little change
decrease of cell viability compared with substrate alone (A549 cells; [5]): 12%
decrease of cell viability compared with substrate alone (A549 cells; [6]): 18%

Compound: Cc1ccc(C(C)C)cc1O [carvacrol]
effect on formation of Chr-7-G ([2]; substrate chrysoeriol): significantly decrease
effect on formation of Dio-3′-G ([2]; substrate diosmetin): significantly decrease

Compound: COc1ccc(-c2cc(=O)c3c(O)cc(O)cc3o2)cc1O [diosmetin, 5,7,3′-trihydroxy-4′-methoxyflavone]
decrease of cell viability compared with substrate alone (HepG2 cells; [5]): 12%
decrease of cell viability compared with substrate alone (HepG2 cells; [6]): 13%
change of cytotoxicity when treated with Ko143 (A549 cells; [4]): little change

effect on formation of Chr-4′-G [3]: significantly decrease
Compound: C=CC1=C(C)/C(=C/c2[nH]c(Cc3[nH]c(/C=C4\NC(=O)C(C)=C4C=C)c(C)c3CCC(=O)O)c(CCC(=O)O)c2C)NC1=O [bilirubin]

Compound: acacetin glucuronide
Km [1]: 14.5 µM
